{"source": "patent US10272078B2", "about": "“Crystalline forms of a prolyl hydroxylase inhibitor” (FibroGen, Inc., priority 2012, dated 2019)", "key": {"Moisture sorption": {"assay": "Moisture sorption", "format": "physicochemical", "settings": "between 5% to 95% relative humidity; lost on desorption"}, "[1]": {"assay": "Solid form stability on storage (XRPD)", "format": "physicochemical", "settings": "for XRPD pattern after storage: 40° C./75% RH", "text": "X-Ray Powder Diffraction patterns were collected on a Bruker AXS C2 GADDS diffractometer using Cu Kα radiation (40 kV, 40 mA), automated XYZ stage, laser video microscope for auto-sample positioning and a HiStar 2-dimensional area detector. X-ray optics consists of a single Gobel multilayer mirror coupled with a pinhole collimator of 0.3 mm. […] The beam divergence, i.e. the effective size of the X-ray beam on the sample, was approximately 4 mm. […] Typically the sample would be exposed to the X-ray beam for 120 seconds. The software used for data collection was GADDS for WNT 4.1.16 and the data were analyzed and presented using Diffrac Plus EVA v11.0.0.2 or v13.0.0.2. Alternatively, X-Ray Powder Diffraction patterns were collected on a Bruker D8 diffractometer using Cu Kα radiation (40 kV, 40 mA), θ-2θ goniometer, and divergence of V4 and receiving slits, a Ge monochromator and a Lynxeye detector. […] The software used for data collection was Diffrac Plus XRD Commander v2.5.0 and the data were analyzed and presented using Diffrac Plus EVA v11.0.0.2 or v13.0.0.2. Samples were run under ambient conditions as flat plate specimens using powder as received. The sample was gently packed into a cavity cut into polished, zero-background (510) silicon wafer. The sample was rotated in its own plane during analysis. The details of the data collection are: • Angular range: 2 to 42° 2θ • Step size: 0.05° 2θ • Collection time: 0.5 s/step • Analysis duration: 7 minutes Differential Scanning Calorimetry (DSC)"}}}
{"compound": "Cc1nc(C(=O)NCC(=O)O)c(O)c2ccc(Oc3ccccc3)cc12", "note": "[Compound A Form A, [(4-hydroxy-1-methyl-7-phenoxy-isoquinoline-3-carbonyl)-amino]-acetic acid]", "values": [{"measurement": "moisture sorption weight gain", "setting": "Moisture sorption", "result": "approximately 0.2%"}]}
{"compound": "Cc1nc(C(=O)NCC(=O)O)c(O)c2ccc(Oc3ccccc3)cc12.NCCO", "note": "[Compound A ethanolamine salt, [(4-hydroxy-1-methyl-7-phenoxy-isoquinoline-3-carbonyl)-amino]-acetic acid ethanolamine salt]", "values": [{"measurement": "XRPD pattern after storage", "setting": "[1]", "result": "Pattern 3 was observed"}]}
{"compound": "[(4-hydroxy-1-methyl-7-phenoxy-isoquinoline-3-carbonyl)-amino]-acetic acid hemihydrate [Compound A Form B]", "values": [{"measurement": "change of crystalline pattern on storage", "setting": "[1]; 25° C./96% RH for twelve days", "result": "reverting to Form A"}, {"measurement": "change of crystalline form on storage (high resolution XRPD)", "setting": "[1]; ambient temperature, a full month (32 days)", "result": "almost completely reverted to anhydrous Form A"}]}
{"compound": "[(4-hydroxy-1-methyl-7-phenoxy-isoquinoline-3-carbonyl)-amino]-acetic acid diethanolamine salt [Compound A diethanolamine salt]", "values": [{"measurement": "XRPD pattern after storage", "setting": "[1]", "result": "Pattern 2 was observed"}]}
